Where two headings read alike, the source gives them in different places.
Legend:
MCF-7 [1] = assay: Cell cycle phase distribution by flow cytometry; type: cell-based, human; conditions: 24 h, different doses
Protocol: (§1) For the MCF-7 cell line, both cell cycle analysis and the cell death percentage were determined using the Apo-Direct kit (BD Pharmingen) based on the TUNEL technique, according to the manufacturer’s instructions. Cells were seeded in 25 cm^2 flasks (3 × 10^6 for 24 h of treatment, 2 × 10^6 for 48 h and 10^6 for 72 h) treated with DMSO (negative control), 6 µM of camptothecin (positive control) and different concentrations of I.1f, I.2f and II.2d.
(§2) After treatment, cells were collected and fixed with 1% paraformaldehyde (Sigma) in PBS (pH = 7.4), incubated in ice for 40 min, collected by centrifugation, washed with PBS and incubated with 70% ethanol for 30 min at −20 °C. After fixation, cells were washed twice with PBS and incubated for 1 h at 37 °C with FITC dUTP-DNA Labeling Solution. Cells were then rinsed and incubated in the dark for 30 min at room temperature with PI/RNase staining buffer before being analyzed by flow cytometry (Coulter Epics XL, Beckman Coulter Flow cytometer). Then, cells were treated with compounds I.1f (80 µM), I.2f (30 µM) and II.2d (5 µM) at different times (from 8 to 72 h) following the same methodology.
(§3) Apoptosis and cell cycle arrest are typical mechanisms of action for many anticancer drugs, including selenocompounds [34, 35, 36]. In a first approach, the effect of the selected compounds on cell cycle progression and the induction of apoptosis was studied in MCF-7 cell cultures. Analyses were performed by flow cytometry using the Apo-Direct kit, based on the TUNEL technique under the conditions described by the manufacturer. The cells were treated with the corresponding compound at different concentrations and time points. Camptothecin was used as a positive control at 6 µM.
To further understand the mechanism of action of these potent compounds, their effects on cell cycle distribution in MCF-7 were studied by flow cytometry. This assay was carried out with different concentrations (Figure 6) and different time points (Figure 7).

MCF-7 [2] = assay: Cell death (subdiploid cells), Apo-Direct kit TUNEL flow cytometry; type: cell-based, human; conditions: 24 h, increasing doses (I.1f 10 to 80 µM)
Protocol: as §1, §2, §3

[3] = MTT cytotoxicity in nonmalignant mammary gland derived cells; type: cell-based; conditions: human
Protocol: (§4) Cell lines were provided by the European Collection of Cell Cultures (ECACC) or by the American Type Culture Collection (ATCC). Seven cell lines were used: MCF-7 (breast adenocarnicoma), 184B5 (nonmalignant, mammary gland derived), CCRF-CEM (lymphoblastic leukemia), HT-29 (colon carcinoma), HTB-54 (lung carcinoma), BEAS-2B (nonmalignant, derived from the bronchial epithelium) and PC-3 (prostate carcinoma). MCF-7, CCRF-CEM, HT-29, HTB-54, BEAS-2B and PC-3 cell lines were grown in RPMI medium (Gibco) supplemented with 10% fetal bovine serum (FBS; Gibco), 100 units/mL penicillin and […] streptomycin (Gibco). 184B5 cells were grown in DMEM/F12 medium supplemented with 5% FBS, 1 × ITS (Lonza), 100 nM hydrocortisone (Aldich), 2 mM sodium pyruvate (Lonza), 20 ng/mL EGF (Sigma-Aldrich), 0.3 nM trans-retinoic acid (Sigma-Aldrich), 100 units/mL penicillin and […] streptomycin. Cells were maintained at 37 °C and 5% CO2.
(§5) The cytotoxic effect of each substance was tested by the MTT method. Each compound was initially dissolved in DMSO at a concentration of 0.01 M, and serial dilutions were prepared with nonsupplemented medium. The cytotoxic effect of each compound was tested at 50 and 10 µM as a first screening. […]
(§6) A total of 1 × 10^4 cells/well in 96-well plates were treated with increasing concentrations of the corresponding compounds for 48 h at 37 °C in a humidified atmosphere containing 5% CO2. Then, cells were incubated with 50 µL of MTT (2 mg/mL stock) for 4 h. The medium was then removed by aspiration, and the formazan crystals were dissolved in […] of DMSO. […] Data were obtained from at least 3 independent experiments performed in quadruplicate. The standard error of the means (SEM) for the cytotoxic parameters was calculated applying the standard deviation formula to the mean values of each parameter for the three independent experiments performed.
(§7) . Cisplatin was used as a standard drug. […]. […] The presence of electron-withdrawing groups (-NO2, -CF3, -Cl) in the phenyl ring favored the cytotoxic activity in the amides, but in the phosphoramidates, the best results were obtained for aliphatic chains methoxy (II.1b, II.2b) and ethoxy (II.1d, II.2d). […].
(§8) The lack of selectivity toward cancerous cells is one of the major issues during the discovery and development of new anticancer agents. Therefore, we evaluated the cytotoxic activity of our compounds against two cell lines derived from nonmalignant breast tissue (184B5) and no malignant bronchial epithelium (BEAS-2B) (Table 2). […].

184B5 = assay: as above; type: cell-based; conditions: for GI50 / IC (TGI): Homo sapiens; for GI50: read-out: GI50 184B5; for IC (TGI): read-out: TGI 184B5
Protocol: as §4, §5, §6, §7, §8

MCF-7 [4] = assay: Autophagy and caspase inhibition assays (wortmannin, Z-VAD-FMK pretreatment); type: cell-based, human; conditions: I.1f 80 µM 72 h, I.2f 30 µM 24 h, II.2d 20 µM 24 h; for Compound-induced cell death after preincubation with wortmannin: 100 nM wortmannin 1 h; for Compound-induced cell death after preincubation with Z-VAD-FMK: 50 µM Z-VAD-FMK 1 h
Protocol: For autophagy and caspase inhibition assays, cells were pretreated with 100 nM of autophagy inhibitor (wortmannin, Santa Cruz) and 50 µM of pan-caspase inhibitor (Z-VAD-FMK, BD Pharmingen) for 1 h. The cells were treated with the compounds I.2f (30 µM) and II.2d (20 µM) for 24 h and I.1f (80 µM) for 72 h. Samples were processed following the same methodology stated above. DMSO was used as a negative control for both inhibitors.
Apoptosis and autophagy are considered as two recognized pathways for anticancer agents due to their effects on cell survival. In the next step, in order to investigate whether the cell death pathway is related to apoptosis or autophagy, we explored the effect of pre-treated cells with either an autophagy inhibitor (wortmannin) or a pan-caspase inhibitor (Z-VAD-FMK). According to the previous results, determinations were performed after treatment with 80 μM of I.1f for 72 h, 30 μM of I.2f for 24 h and 20 μM of II.2d for 24 h.

CCRF-CEM = assay: cells; conditions: Homo sapiens, 48 h; for activity at 10 µM: read-out: Cell growth (%) CCRF-CEM; for GI50: read-out: GI50 CCRF-CEM; for CC50: read-out: LC50 CCRF-CEM; for IC (TGI): read-out: TGI CCRF-CEM
HT-29 = assay: cells; conditions: Homo sapiens, HT-29, 48 h; for activity at 10 µM: read-out: Cell growth (%) HT-29; for GI50: read-out: GI50 HT-29; for CC50: read-out: LC50 HT-29; for IC (TGI): read-out: TGI HT-29
MCF-7 [5] = assay: Western blot of autophagy and apoptosis markers; type: cell-based, human; conditions: for Beclin-1 and LC3B levels / Phosphorylation of AMPK and JNK / SQSTM1/p62 (autophagic flux): I.1f 80 µM 48 h, I.2f 30 µM 24 h
[6] = 184B5, nonmalignant cells, 48 h
[7] = nonmalignant cells, 48 h, read-out: LC50 184B5

O=C(Nc1ccc([Se][Se]c2ccc(NC(=O)c3ccc(C(F)(F)F)cc3)cc2)cc1)c1ccc(C(F)(F)F)cc1 [I.1f]
Cell cycle phase distribution (MCF-7 [1]): increased the number of cells in the S phase dose-dependently
Cell death (subdiploid cells) (MCF-7 [2]): did not stimulate cell death
LC50 (50% lethal concentration) at 48 h [3]: 92.3 µM
GI50 (184B5; [6]): 6.59 µM
IC (TGI) (184B5; [6]): 44 µM
Compound-induced cell death after preincubation with wortmannin (MCF-7 [4]): prevented cell death
Compound-induced cell death after preincubation with Z-VAD-FMK (MCF-7 [4]): did not
activity at 10 µM (CCRF-CEM): 36.5%
GI50 (CCRF-CEM): 4.7 ± 0.7 µM
CC50 (CCRF-CEM): 79.2 ± 4.1 µM
IC (TGI) (CCRF-CEM): 31.7 ± 1.8 µM
activity at 10 µM (HT-29): -18.4%
GI50 (HT-29): 0.1 µM
CC50 (HT-29): > 100 µM
IC (TGI) (HT-29): 5.7 ± 0.9 µM
Beclin-1 and LC3B levels (MCF-7 [5]): increased levels
Phosphorylation of AMPK and JNK (MCF-7 [5]): induced JNK and AMPK phosphorylation
SQSTM1/p62 (autophagic flux) (MCF-7 [5]): downregulated

CCOP(=O)(Nc1ccc([Se]C#N)cc1)OCC [II.2d]
Cell cycle phase distribution (MCF-7 [1]): arrested them in G0/G1 phase
Cell death (subdiploid cells) (MCF-7 [2]): provoked a significant increase in the number of death cells
CC50 at 48 h [3, 7]: 8.93 µM
GI50 (184B5; 184B5, 48 h): 5.7 µM
IC (TGI) (184B5; 184B5, 48 h): 7.31 µM
Selectivity index (SI) = GI50 (184B5)/GI50 (MCF-7) (184B5; breast): 6.33
Compound-induced cell death after preincubation with wortmannin (MCF-7 [4]): could not prevent cell death
Compound-induced cell death after preincubation with Z-VAD-FMK (MCF-7 [4]): prevented it
activity at 10 µM (CCRF-CEM): -87.4%
GI50 (CCRF-CEM): 0.2 µM
CC50 (CCRF-CEM): 0.9 ± 0.1 µM
IC (TGI) (CCRF-CEM): 0.5 µM
activity at 10 µM (HT-29): -63.4%
GI50 (HT-29): 5 ± 0.8 µM
CC50 (HT-29): 9.5 ± 0.4 µM
IC (TGI) (HT-29): 7.3 ± 0.2 µM
BAX, p21, p53 levels (MCF-7 [5]): Significantly increased levels
Bcl-2 levels (MCF-7 [5]): decreased levels

N#C[Se]c1ccc(NC(=O)c2ccc(C(F)(F)F)cc2)cc1 [I.2f]
Cell cycle phase distribution (MCF-7 [1]): increased the number of cells in the S phase dose-dependently
Cell death (subdiploid cells) (MCF-7 [2]): provoked a significant increase in the number of death cells
LC50 (50% lethal concentration) [3, 7]: > 100 µM
GI50 (184B5; [6]): 16.6 µM
IC (TGI) (184B5; [6]): > 100 µM
Compound-induced cell death after preincubation with wortmannin (MCF-7 [4]): prevented cell death
Compound-induced cell death after preincubation with Z-VAD-FMK (MCF-7 [4]): did not
activity at 10 µM (CCRF-CEM): 54.6%
GI50 (CCRF-CEM): 7.3 ± 0.5 µM
CC50 (CCRF-CEM): > 100 µM
IC (TGI) (CCRF-CEM): > 100 µM
activity at 10 µM (HT-29): 26.7%
GI50 (HT-29): 0.6 ± 0.4 µM
CC50 (HT-29): > 100 µM
IC (TGI) (HT-29): 79.2 ± 0.3 µM
Beclin-1 and LC3B levels (MCF-7 [5]): increased levels
Phosphorylation of AMPK and JNK (MCF-7 [5]): induced JNK and AMPK phosphorylation
SQSTM1/p62 (autophagic flux) (MCF-7 [5]): downregulated

From publication PMC8069832, “New Amides and Phosphoramidates Containing Selenium: Studies on Their Cytotoxicity and Antioxidant Activities in Breast Cancer” (Antioxidants, 2021)
